Experimental data reported in US8753666B2, “Punctal plugs and methods of delivering therapeutic agents” (Alcon Research, Ltd., priority 2007, dated 2014).

Experiment: Release of AL-6598 from silicone dies of three sizes in PBS at 37° C.
Type: physicochemical
Details: silicone die containing 10% AL-6598, 10x10x1 mm, 10x5x1 mm and 5x5x1 mm, FIG. 8
Experimental: To study the effect of surface area on the release of prostaglandin from a silicone matrix, prostaglandin release from silicone dies of three different sizes was measured. The largest silicone die measured 10 mm×10 mm×1 mm. A ½ size device (10 mm×5 mm×1 mm) and a ¼ size device (5 mm×5 mm×1 mm) were also used in this study. Each silicone die contained 10% AL-6598, which is a DP class prostaglandin analogue. The silicone die were placed in phosphate buffered saline (PBS) at 37° C. and the amount of AL-6598 released was measured.

CC(C)OC(=O)COC/C=C\C[C@@H]1[C@@H](CC[C@@H](O)C2CCCCC2)[C@H](O)C[C@H]1Cl [AL-6598]
release of AL-6598 from silicone die (effect of surface area): dependent on the size of the silicone die with the larger surface area resulting in the more rapid drug release
